# Entries after “also recorded” stand apart in the source; their conditions may differ.
# How the values were obtained:
# [1] = system: dsDNA break repair in U251 cells; experiment: DSB measurement by PFGE and number average length analysis; assay type: cell-based, human; details: U251, 30 μM 4 hours, 4 Gy
# Method: Cells were treated with 30 μM NS-123 or DMSO alone. Four hours later, the cells were either sham-irradiated, or irradiated with 4 Gy of ^137Cs γ-rays (Radiation Facility, Brody School of Medicine, ECU) at the dose rate of 0.57 Gy/min and placed immediately at 37° C. in fresh medium without NS-123 and harvested at different repair times up to 24 hours. No significant changes in the percentage of dead cells were detected by trypan blue exclusion as a result of irradiation. […] A DNA dispersion curve relating DNA length to electrophoretic mobility, based on all length standards was determined from an analytical mobility function as previously described using number average length analysis (NALA) (Seo, et al., 2005, Clin. Cancer Res. 11:7499-507).
# As a first step in understanding the mechanism of the radiosensitizing activity of NS-123, the processing of DSBs in U251 cells treated with 30 μM NS-123 or DMSO (control) was measured using an adaptation of PFGE. […] Therefore, a 4 hour, 30 μM NS-123 treatment for experiments analyzing the effects of NS-123 on DSB repair and immunoblotting was used (see below) which require a significant quantity of cells. […]
# [2] = system: Nontransformed human astrocytes (NHA); experiment: Modified MTS survival assay on normal human astrocytes after IR; assay type: cell-based; details: 5 μM, 8 hours or 12 hours pretreatment, versus DMSO
# Method: Clonogenic survival assays were performed as described by Koumenis, et al., 2002, (Mol. Cell Biol. 22:7405-16), which reference is incorporated herein in its entirety. U251, HT-29, or A549 cells were plated at different densities in triplicate, treated with NS-123 or DMSO (alone) and irradiated 4, 8, or 12 hours later with a range of doses using ^137Cs γ-rays at a dose rate of ˜4 Gy/minute (min). One hour after irradiation, the medium was replaced with fresh medium without NS-123 or DMSO. The cells were fixed 7-14 days after IR and stained with crystal violet. Colonies greater than 50 cells were then counted and normalized against the non-irradiated controls for each treatment. […] NHA cells were plated in 24-well plates in quadruplicate at equal density, treated with equal volumes of NS-123 or DMSO (alone) and irradiated as described above. One hour after irradiation, the medium was replaced with fresh ABM. Five days later, the MTS assay was used to evaluate cell survival as above.
# The objective of any combination of therapeutic agents is to achieve an improved therapeutic result, which is a function both of tumor response and of normal tissue damage. No improvement in the therapeutic result of IR is gained utilizing a drug that increases the sensitivity of both tumor and normal cells to the same extent. […]
# U251 glioma cell line = experiment: Chemical library radiosensitizer screen (MTS assay, paired plates 4 Gy / unirradiated); assay type: cell-based, human; details: U251, 8 hours at 2.5 μM, MTS four days later
# Method: Six hundred U251 cells were plated per well in 96 well plates. Cells in each well were then treated with a different compound from the Nanosyn library for 8 hours at 2.5 μM concentration. Treatment was performed with paired 96-well plates; one plate was exposed to 4 Gy and the other plate was an unirradiated control. One hour after irradiation, the medium was replaced with fresh medium alone. Four days later, the MTS assay was used to evaluate cell survival. Absorbance was measured at 490 nm with a microplate reader (Sprectramax, Molecular Devices, Sunnyvale, Calif.). Radiosensitivity factors (RSF) were calculated according to the following formula for each compound tested with the assay:
# [formula] Survival Assays
# The small chemical compound chemical library (Nanosyn, Inc.) was replicated in a 96-well format and compounds were dissolved in DMSO at a concentration of […]. Using the U251 glioma cell line, the radiosensitizing capability of 870 compounds was initially assayed within the library. The assay was optimized in terms of the number of cells, radiation dose used, and the number of days incubated so that a decrease in survival could be assessed. […] The structure of three novel radiosensitizing compounds is depicted in FIG. 1B.
smiles,measurement,setting,value
"CCC(=O)c1ccc(Br)c([N+](=O)[O-])c1 [NS-123, 4′-bromo-3′-nitropropiophenone]",initial number of dsDNA breaks,[1],88.5±5.3 DSBs/Gbp
same,residual DSB damage compared to initial levels,[1]; 24 hours repair,~25%
same,radiosensitization of normal human glial cells,[2],no significant increase in radiosensitization; also recorded: does not radiosensitize
same,average Radiosensitivity factor (RSF),U251 glioma cell line,4.62

# Reference: patent US8541476B2, “Compounds for treatment of malignant tumors” (The Trustees of the University of Pennsylvania, priority 2007, dated 2013)
